Data on eleven molecules can be found in ChEMBL document CHEMBL1130950, “Synthesis and structure-activity relationship of substituted 1,2,3,4-tetrahydroisoquinolines as N-type calcium channel blockers” (Bioorg Med Chem Lett, 1998).

Structures are written as SMILES.

Chain of Voltage-dependent N-type calcium channel subunit alpha-1B (Q00975 whole entry): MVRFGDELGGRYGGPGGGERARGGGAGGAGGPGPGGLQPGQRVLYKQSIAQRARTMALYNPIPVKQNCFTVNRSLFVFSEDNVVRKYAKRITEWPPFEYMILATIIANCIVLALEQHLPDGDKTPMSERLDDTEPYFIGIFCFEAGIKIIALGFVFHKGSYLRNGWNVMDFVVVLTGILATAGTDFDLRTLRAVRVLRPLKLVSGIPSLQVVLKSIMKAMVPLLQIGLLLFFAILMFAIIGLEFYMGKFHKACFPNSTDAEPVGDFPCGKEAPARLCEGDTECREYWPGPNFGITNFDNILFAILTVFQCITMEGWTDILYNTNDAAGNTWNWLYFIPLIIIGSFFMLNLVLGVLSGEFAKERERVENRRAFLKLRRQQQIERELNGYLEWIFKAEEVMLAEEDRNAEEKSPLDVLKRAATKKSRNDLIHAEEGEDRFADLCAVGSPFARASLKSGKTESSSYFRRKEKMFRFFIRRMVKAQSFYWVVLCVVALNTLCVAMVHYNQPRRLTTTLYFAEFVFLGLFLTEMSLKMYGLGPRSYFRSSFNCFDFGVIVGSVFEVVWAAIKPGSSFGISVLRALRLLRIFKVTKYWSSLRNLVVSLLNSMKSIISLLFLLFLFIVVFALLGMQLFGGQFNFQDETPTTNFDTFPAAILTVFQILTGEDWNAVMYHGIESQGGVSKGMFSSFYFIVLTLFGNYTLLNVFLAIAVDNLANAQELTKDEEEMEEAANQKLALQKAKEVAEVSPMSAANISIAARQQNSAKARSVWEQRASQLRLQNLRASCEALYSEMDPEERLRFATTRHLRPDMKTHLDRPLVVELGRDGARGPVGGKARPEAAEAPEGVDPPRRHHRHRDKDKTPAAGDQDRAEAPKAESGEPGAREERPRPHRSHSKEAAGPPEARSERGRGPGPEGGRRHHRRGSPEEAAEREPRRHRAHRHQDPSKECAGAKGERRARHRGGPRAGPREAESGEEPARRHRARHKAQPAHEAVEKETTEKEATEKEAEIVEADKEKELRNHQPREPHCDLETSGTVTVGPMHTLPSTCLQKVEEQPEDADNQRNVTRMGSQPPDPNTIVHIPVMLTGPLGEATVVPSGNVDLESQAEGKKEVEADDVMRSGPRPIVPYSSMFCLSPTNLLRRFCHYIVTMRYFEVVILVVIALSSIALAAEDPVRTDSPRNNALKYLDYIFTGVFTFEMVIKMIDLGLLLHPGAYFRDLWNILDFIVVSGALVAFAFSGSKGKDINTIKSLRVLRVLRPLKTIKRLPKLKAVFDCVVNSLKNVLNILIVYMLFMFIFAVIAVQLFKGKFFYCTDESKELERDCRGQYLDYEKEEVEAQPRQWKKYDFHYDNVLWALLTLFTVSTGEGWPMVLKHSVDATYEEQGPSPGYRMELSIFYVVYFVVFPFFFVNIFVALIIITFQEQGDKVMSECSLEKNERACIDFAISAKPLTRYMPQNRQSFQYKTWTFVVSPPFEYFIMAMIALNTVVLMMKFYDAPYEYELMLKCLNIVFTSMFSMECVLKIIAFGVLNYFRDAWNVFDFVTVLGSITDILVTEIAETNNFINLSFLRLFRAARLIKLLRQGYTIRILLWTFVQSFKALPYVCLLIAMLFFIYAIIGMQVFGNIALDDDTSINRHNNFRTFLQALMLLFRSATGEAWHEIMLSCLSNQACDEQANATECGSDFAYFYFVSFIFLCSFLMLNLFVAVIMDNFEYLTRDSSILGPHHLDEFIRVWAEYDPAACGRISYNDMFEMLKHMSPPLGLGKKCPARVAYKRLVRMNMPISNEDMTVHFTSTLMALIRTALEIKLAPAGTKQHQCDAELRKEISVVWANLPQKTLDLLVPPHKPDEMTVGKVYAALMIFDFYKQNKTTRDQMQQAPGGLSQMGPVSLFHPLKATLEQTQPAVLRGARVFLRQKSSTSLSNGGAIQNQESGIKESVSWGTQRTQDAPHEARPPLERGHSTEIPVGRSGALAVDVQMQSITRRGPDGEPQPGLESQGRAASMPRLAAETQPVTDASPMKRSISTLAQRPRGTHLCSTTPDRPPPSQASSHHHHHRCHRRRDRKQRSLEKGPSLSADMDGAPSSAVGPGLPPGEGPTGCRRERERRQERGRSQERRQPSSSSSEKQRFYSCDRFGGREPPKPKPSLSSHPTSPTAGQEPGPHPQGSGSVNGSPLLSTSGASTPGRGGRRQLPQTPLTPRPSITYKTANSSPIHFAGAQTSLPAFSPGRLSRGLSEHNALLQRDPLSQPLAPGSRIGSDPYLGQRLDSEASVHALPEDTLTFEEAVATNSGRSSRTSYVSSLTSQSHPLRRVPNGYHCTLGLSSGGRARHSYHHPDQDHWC

The experiment has as its target Voltage-dependent N-type calcium channel subunit alpha-1B (Homo sapiens, UniProt Q00975). The experiment is described as follows: Inhibition of N-type calcium channel in IMR-32 human neuroblastoma cells. It is filed as cell-based.
With `Oc1c(CN2CCCCCC2)ccc2c1CCN(CCCCC(c1ccccc1)c1ccccc1)C2`, the IC50 was found to be 4.8 µM. In the case of `Oc1c(CN2CCCCCC2)ccc2c1CCN(CCCC(c1ccccc1)c1ccccc1)C2` it was 0.46 µM; in that of `Oc1c(CN2CCCCCC2)ccc2c1CCN(CCCCC=C(c1ccccc1)c1ccccc1)C2`, 2.5 µM; in that of `Oc1c(CN2CCCCC2)cc(Cc2cc(CN3CCCCC3)c(O)c3ncccc23)c2ccncc12`, 4.4 µM.

For the molecule `Oc1c(CN2CCCCCC2)ccc2cnccc12`, the IC50 is 35 µM. In the case of `Oc1c(CN2CCCCCC2)ccc2c1CCN(CCCCc1ccccc1)C2` it was 15 µM; in that of `COc1ccc(CCCCN2CCc3c(ccc(CN4CCCCCC4)c3O)C2)cc1`, 10 µM; in that of `Oc1c(CN2CCCCCC2)ccc2c1CCN(CCCCc1ccc(F)cc1)C2`, 5.1 µM. In the case of `Oc1c(CN2CCCCCC2)ccc2c1CCN(CCCCCC(c1ccccc1)c1ccccc1)C2` it was 1.1 µM. Then `CN1CCc2c(ccc(CN3CCCCCC3)c2O)C1`, with greater than 100 µM; and `Oc1c(CN2CCCCCC2)ccc2c1CCN(CCC(c1ccccc1)c1ccccc1)C2`, with 7.4 µM.

As a reminder, the IC50 is the concentration needed to halve the response being measured.
